Assay results published in patent US20080009418A1, “Selective Inhibitors” (Alchemia LTD., priority 2004, published 2008).

Key:
Human Melanocortin (MC3) = target: T1, Human Melanocortin (MC3) (Homo sapiens, UniProt P41968); test: Radioligand binding, human melanocortin MC3 membranes, FlashPlate, [125I]-NDP-αMSH; details: compound at 10 μM; for A3 radioligand binding inhibition: human melanocortin MC3 membranes
T1 construct: purchased Perkin Elmer Biosignal
Outline: (§1)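 Cloned human receptor membranes were coated onto FlashPlate wells and incubated with radioligand and compound (added from a 0.5 mM DMSO daughter plate) for 1 hour at room temperature in the dark. Scintillation counting gave percent inhibition, with DMSO defining total and reference ligand defining non-specific binding.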

Human κ-Opioid (KOP) = target: T2, Human κ-Opioid (KOP) (Homo sapiens, UniProt P41145); test: Radioligand binding, human κ-opioid (KOP) membranes, filtration, [3H]-Diprenorphine; details: compound at 10 μM; for A2 radioligand binding inhibition: human κ-opioid (KOP) membranes
T2 construct: purchased Perkin Elmer Biosignal
Outline: (§2)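 Percent inhibition of radioligand binding measured on recombinant human membranes: NK1 with [125I]-Substance P, KOP with [3H]-Diprenorphine. Incubation 1 h at room temperature, then harvest onto 0.3% PEI-soaked filters, cold Tris-HCl pH 7.4 washes and scintillation counting; non-specific binding from reference ligand wells.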

Human opioid (ORL1) = target: T3, Human opioid (ORL1) (Homo sapiens, UniProt P41146); test: Radioligand binding, human opioid ORL1 membranes, FlashPlate, [125I]-Nociceptin; details: compound at 10 μM; for A10 radioligand binding inhibition: human ORL1 membranes
T3 construct: purchased Perkin Elmer Biosignal
Outline: as §1

Human Melanocortin (MC4) = target: T4, Human Melanocortin (MC4) (Homo sapiens, UniProt P32245); test: Radioligand binding, human melanocortin MC4 membranes, FlashPlate, [125I]-NDP-αMSH; details: compound at 10 μM; for A4 radioligand binding inhibition: human melanocortin MC4 membranes
T4 construct: purchased Perkin Elmer Biosignal
Outline: as §1

Human μ-opioid (MOP) = target: T5, Human μ-opioid (MOP) (Homo sapiens, UniProt P35372); test: Radioligand binding, human μ-opioid (MOP) membranes, FlashPlate, [3H]-Naloxone; details: compound at 10 μM; for A7 radioligand binding inhibition: human μ-opioid (MOP) membranes; for A7: inhibition of radioligand binding, human μ-opioid (MOP): 10 µM
T5 construct: purchased Perkin Elmer Biosignal
Outline: as §1

Human melanocortin (MC5) = target: T6, Human melanocortin (MC5) (Homo sapiens, UniProt P33032); test: Radioligand binding, human melanocortin MC5 membranes, FlashPlate, [125I]-NDP-αMSH; details: compound at 10 μM; for A5 radioligand binding inhibition: human melanocortin MC5 membranes
T6 construct: purchased Perkin Elmer Biosignal
Outline: as §1

[1] = target: T7, Human melanin-concentrating hormone (MCH1) (Homo sapiens, UniProt Q99705); test: Radioligand binding, human melanin-concentrating hormone MCH1 membranes, FlashPlate, [125I]-S36057; details: compound at 10 μM; for A6 radioligand binding inhibition: human MCH1 membranes; for A6: inhibition of radioligand binding, human melanin-concentrating hormone (MCH1): [125I]-S36057
T7 construct: purchased Perkin Elmer Biosignal
Outline: as §1

Human neurokinin (NK1) = target: T8, Human neurokinin (NK1) (Homo sapiens, UniProt P25103); test: Radioligand binding, human neurokinin NK1 membranes, filtration, [125I]-Substance P; details: compound at 10 μM; for A8 radioligand binding inhibition: human neurokinin NK1 membranes
T8 construct: purchased Perkin Elmer Biosignal
Outline: as §2

[2] = target: T9, Human neuropeptide Y (NPY-Y1) (Homo sapiens, UniProt P25929); test: Radioligand binding, human neuropeptide Y NPY-Y1 membranes, FlashPlate, [125I]-PYY; details: compound at 10 μM; for A9 radioligand binding inhibition: human NPY-Y1 membranes
T9 construct: purchased Perkin Elmer Biosignal
T9 sequence (P25929 1-384): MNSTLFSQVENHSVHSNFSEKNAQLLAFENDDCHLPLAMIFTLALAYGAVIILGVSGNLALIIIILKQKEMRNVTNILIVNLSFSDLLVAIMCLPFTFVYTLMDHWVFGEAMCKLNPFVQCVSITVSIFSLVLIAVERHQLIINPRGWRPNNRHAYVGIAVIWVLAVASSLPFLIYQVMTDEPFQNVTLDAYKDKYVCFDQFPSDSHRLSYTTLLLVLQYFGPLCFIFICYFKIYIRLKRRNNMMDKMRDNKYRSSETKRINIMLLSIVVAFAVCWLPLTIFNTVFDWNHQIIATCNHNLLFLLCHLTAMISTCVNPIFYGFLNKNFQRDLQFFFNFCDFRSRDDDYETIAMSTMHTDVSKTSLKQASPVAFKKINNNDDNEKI
Outline: as §1

Human δ-opioid (DOP) = target: T10, Human δ-opioid (DOP) (Homo sapiens, UniProt P41143); test: Radioligand binding, human δ-opioid (DOP) membranes, FlashPlate, [3H]-Bremazocine; details: compound at 10 μM; for A1 radioligand binding inhibition: human δ-opioid (DOP) membranes
T10 construct: purchased Perkin Elmer Biosignal
Outline: as §1

Mouse urotensin (mUR2) = target: T11, Mouse urotensin (mUR2) (Mus musculus, UniProt Q8VIH9); test: Radioligand binding, mouse urotensin mUR2 membranes, FlashPlate, [125I]-Urotensin II; details: compound at 10 μM; for A11 radioligand binding inhibition: mouse urotensin mUR2 membranes
T11 construct: purchased Perkin Elmer Biosignal
T11 sequence (Q8VIH9 1-385): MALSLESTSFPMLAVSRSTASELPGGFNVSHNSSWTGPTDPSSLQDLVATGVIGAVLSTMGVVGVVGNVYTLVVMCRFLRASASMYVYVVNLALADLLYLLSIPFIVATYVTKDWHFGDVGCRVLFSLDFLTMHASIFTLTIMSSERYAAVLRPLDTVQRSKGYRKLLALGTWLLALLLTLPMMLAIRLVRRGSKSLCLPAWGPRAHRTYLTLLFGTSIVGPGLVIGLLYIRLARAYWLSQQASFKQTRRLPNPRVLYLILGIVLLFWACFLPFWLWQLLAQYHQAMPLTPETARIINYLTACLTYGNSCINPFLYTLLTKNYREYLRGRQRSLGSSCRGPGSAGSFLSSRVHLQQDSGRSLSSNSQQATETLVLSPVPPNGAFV
Outline: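 Cloned mouse urotensin (mUR2) receptor membranes from Perkin Elmer Biosignal were immobilized in FlashPlate microplates using a proprietary coating. Each well got 19.5 μl buffer, then 0.5 μl of DMSO, reference ligand, or compound. Adding 5 μl of [125I]-Urotensin II, diluted to 5× final concentration in binding buffer, started binding. Plates were sealed with TopSeal-A and incubated 1 hour at room temperature in the dark. Wells were counted for 30 seconds each on a TopCount after a 60-second delay, and percentage inhibition was calculated.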

T5 sequence (P35372 whole entry): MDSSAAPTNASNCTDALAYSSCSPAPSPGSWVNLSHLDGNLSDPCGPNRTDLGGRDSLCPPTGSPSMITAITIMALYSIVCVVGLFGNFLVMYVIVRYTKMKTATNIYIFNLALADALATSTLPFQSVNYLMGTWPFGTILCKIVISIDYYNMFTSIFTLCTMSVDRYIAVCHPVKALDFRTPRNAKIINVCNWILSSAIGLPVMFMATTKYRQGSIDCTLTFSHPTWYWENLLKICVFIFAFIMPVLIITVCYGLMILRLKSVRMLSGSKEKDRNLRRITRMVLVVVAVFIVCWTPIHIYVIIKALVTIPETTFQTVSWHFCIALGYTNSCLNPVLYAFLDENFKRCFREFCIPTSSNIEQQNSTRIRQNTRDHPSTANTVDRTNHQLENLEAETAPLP
T2 sequence (P41145 whole entry): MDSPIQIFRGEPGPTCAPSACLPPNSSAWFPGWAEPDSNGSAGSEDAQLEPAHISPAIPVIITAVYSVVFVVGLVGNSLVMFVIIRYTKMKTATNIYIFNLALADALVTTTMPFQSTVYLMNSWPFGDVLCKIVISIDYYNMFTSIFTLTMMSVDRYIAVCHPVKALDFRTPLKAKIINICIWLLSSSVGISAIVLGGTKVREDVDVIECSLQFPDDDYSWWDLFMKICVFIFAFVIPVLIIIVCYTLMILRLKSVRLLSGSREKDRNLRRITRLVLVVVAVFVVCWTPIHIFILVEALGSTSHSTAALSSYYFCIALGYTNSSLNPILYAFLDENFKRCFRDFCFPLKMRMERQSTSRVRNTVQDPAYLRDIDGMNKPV
T7 sequence (Q99705 whole entry): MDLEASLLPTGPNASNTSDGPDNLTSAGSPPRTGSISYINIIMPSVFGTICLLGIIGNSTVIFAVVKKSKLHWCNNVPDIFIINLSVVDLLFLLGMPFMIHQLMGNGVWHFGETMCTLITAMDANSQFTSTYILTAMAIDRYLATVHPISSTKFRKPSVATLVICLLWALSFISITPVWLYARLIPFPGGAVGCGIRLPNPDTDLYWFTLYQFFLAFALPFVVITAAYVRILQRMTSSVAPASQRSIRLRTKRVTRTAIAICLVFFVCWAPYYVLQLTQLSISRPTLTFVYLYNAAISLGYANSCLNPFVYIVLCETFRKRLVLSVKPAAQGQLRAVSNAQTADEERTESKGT
T4 sequence (P32245 whole entry): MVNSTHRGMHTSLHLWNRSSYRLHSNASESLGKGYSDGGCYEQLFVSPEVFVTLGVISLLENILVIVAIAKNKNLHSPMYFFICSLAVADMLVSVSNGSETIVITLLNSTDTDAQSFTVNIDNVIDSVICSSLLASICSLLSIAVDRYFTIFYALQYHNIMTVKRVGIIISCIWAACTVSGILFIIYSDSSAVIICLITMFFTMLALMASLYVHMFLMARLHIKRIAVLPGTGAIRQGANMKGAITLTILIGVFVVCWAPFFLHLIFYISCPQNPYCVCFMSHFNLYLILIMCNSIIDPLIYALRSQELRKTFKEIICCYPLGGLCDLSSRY
T8 sequence (P25103 whole entry): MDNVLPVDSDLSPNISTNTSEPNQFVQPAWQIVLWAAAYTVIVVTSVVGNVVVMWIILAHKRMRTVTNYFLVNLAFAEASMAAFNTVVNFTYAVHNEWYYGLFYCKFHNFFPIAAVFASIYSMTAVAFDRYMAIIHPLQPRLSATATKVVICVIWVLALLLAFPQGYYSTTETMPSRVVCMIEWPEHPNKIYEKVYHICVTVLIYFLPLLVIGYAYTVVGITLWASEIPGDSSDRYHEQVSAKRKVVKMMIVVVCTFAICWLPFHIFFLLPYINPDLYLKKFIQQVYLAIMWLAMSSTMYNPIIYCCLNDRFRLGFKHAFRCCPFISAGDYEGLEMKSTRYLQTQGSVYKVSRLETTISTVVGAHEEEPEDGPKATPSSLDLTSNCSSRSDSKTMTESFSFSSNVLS
T6 sequence (P33032 whole entry): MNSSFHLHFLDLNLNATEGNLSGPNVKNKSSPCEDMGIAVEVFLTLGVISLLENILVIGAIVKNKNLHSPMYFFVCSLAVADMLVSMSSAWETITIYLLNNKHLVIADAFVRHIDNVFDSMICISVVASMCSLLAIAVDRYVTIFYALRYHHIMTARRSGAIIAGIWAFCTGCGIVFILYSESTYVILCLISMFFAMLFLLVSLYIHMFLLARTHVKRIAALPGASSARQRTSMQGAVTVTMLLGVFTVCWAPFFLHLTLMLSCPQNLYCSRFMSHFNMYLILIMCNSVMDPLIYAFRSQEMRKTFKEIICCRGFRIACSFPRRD
T10 sequence (P41143 whole entry): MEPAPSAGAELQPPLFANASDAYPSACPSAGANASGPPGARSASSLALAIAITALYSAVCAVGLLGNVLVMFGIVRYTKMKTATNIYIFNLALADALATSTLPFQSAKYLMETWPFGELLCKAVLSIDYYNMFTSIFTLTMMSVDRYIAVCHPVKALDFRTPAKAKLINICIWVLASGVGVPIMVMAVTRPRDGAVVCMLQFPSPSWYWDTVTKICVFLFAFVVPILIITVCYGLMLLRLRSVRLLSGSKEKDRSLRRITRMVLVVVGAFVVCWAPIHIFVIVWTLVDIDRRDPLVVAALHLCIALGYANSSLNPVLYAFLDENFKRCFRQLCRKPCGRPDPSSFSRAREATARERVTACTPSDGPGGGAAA
T3 sequence (P41146 whole entry): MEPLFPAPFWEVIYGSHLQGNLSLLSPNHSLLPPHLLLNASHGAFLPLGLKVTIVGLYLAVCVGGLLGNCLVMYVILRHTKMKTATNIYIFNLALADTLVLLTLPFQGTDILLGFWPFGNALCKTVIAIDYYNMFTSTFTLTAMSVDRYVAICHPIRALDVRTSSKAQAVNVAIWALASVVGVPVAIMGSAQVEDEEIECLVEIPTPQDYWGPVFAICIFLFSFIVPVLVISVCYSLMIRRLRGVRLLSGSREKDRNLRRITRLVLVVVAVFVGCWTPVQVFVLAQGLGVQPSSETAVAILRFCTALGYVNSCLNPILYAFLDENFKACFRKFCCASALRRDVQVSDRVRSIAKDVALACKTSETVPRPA
T1 sequence (P41968 whole entry): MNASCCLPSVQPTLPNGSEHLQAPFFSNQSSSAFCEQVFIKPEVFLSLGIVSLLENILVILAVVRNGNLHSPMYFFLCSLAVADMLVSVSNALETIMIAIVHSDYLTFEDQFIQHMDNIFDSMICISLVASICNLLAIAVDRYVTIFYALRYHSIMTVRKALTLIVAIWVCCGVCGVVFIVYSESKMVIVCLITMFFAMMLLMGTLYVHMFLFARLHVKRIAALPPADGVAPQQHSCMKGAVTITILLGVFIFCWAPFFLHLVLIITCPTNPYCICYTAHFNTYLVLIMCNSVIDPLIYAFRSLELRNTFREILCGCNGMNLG

Compound	A3 radioligand binding inhibition (Human Melanocortin (MC3))	A2 radioligand binding inhibition (Human κ-Opioid (KOP))	A10 radioligand binding inhibition (Human opioid (ORL1))	A4 radioligand binding inhibition (Human Melanocortin (MC4))	A7 radioligand binding inhibition (Human μ-opioid (MOP))	A5 radioligand binding inhibition (Human melanocortin (MC5))	A6 radioligand binding inhibition [1]	A8 radioligand binding inhibition (Human neurokinin (NK1))	A9 radioligand binding inhibition [2]	A1 radioligand binding inhibition (Human δ-opioid (DOP))	A11 radioligand binding inhibition (Mouse urotensin (mUR2))	A3: inhibition of radioligand binding, human melanocortin (MC3) (Human Melanocortin (MC3); [125I]-NDP-αMSH)	A2: inhibition of radioligand binding, human κ-opioid (KOP) (Human κ-Opioid (KOP); [3H]-Diprenorphine)	A10: inhibition of radioligand binding, human opioid (ORL1) (Human opioid (ORL1); [125I]-Nociceptin)	A4: inhibition of radioligand binding, human melanocortin (MC4) (Human Melanocortin (MC4); [125I]-NDP-αMSH)	A7: inhibition of radioligand binding, human μ-opioid (MOP) (Human μ-opioid (MOP); [3H]-Naloxone)	A5: inhibition of radioligand binding, human melanocortin (MC5) (Human melanocortin (MC5); [125I]-NDP-αMSH)	A8: inhibition of radioligand binding, human neurokinin (NK1) (Human neurokinin (NK1); [125I]-Substance P)	A9: inhibition of radioligand binding, human neuropeptide Y (NPY-Y1) ([2]; [125I]-PYY)	A11: inhibition of radioligand binding, mouse urotensin (mUR2) (Mouse urotensin (mUR2); [125I]-Urotensin II)	also measured
COC[C@H]1OC(OCc2ccccc2)[C@H](NC(=O)CCNC(=N)N)[C@@H](OCc2ccc(-c3ccccc3)cc2)[C@@H]1O (stereo partly shown) [compound 24]	− (“−” indicates less than 50% inhibition at 10 μM)	− (“−” indicates less than 50% inhibition at 10 μM)	− (“−” indicates less than 50% inhibition at 10 μM)	− (“−” indicates less than 50% inhibition at 10 μM)	− (“−” indicates less than 50% inhibition at 10 μM)	+ (“+” indicates greater than 50% inhibition at 10 μM)	+ (“+” indicates greater than 50% inhibition at 10 μM)	+ (“+” indicates greater than 50% inhibition at 10 μM)	− (“−” indicates less than 50% inhibition at 10 μM)	− (“−” indicates less than 50% inhibition at 10 μM)	− (“−” indicates less than 50% inhibition at 10 μM)										
N=C(N)NCCC(=O)N[C@H]1C(OCc2ccc(Cl)cc2)O[C@H](COCc2ccccc2)[C@@H](O)[C@@H]1OCc1ccc(-c2ccccc2)cc1 (stereo partly shown) [compound 536]												+ (“+” indicates greater than 50% inhibition at 10 μM)	+ (“+” indicates greater than 50% inhibition at 10 μM)	− (“−” indicates less than 50% inhibition at 10 μM)	+ (“+” indicates greater than 50% inhibition at 10 μM)	− (“−” indicates less than 50% inhibition at 10 μM)	+ (“+” indicates greater than 50% inhibition at 10 μM)	+ (“+” indicates greater than 50% inhibition at 10 μM)	− (“−” indicates less than 50% inhibition at 10 μM)	− (“−” indicates less than 50% inhibition at 10 μM)	A6: inhibition of radioligand binding, human melanin-concentrating hormone (MCH1) [1]: + (“+” indicates greater than 50% inhibition at 10 μM); A1: inhibition of radioligand binding, human δ-opioid (DOP) (Human δ-opioid (DOP); [3H]-Bremazocine, 10 µM): − (“−” indicates less than 50% inhibition at 10 μM)
COCC1OC(OCc2ccc(Cl)cc2)C(NC(=O)CNC(=N)N)C(OCc2ccc(Cl)cc2)C1O (stereo not shown) [compound 200]																					A3: inhibition of radioligand binding (Human Melanocortin (MC3); [125I]-NDP-αMSH, FlashPlate): + (“+” indicates greater than 50% inhibition at 10 μM); A2: inhibition of radioligand binding (Human κ-Opioid (KOP); [3H]-Diprenorphine, filtration): − (“−” indicates less than 50% inhibition at 10 μM); A10: inhibition of radioligand binding (Human opioid (ORL1); [125I]-Nociceptin, FlashPlate): − (“−” indicates less than 50% inhibition at 10 μM); A4: inhibition of radioligand binding (Human Melanocortin (MC4); [125I]-NDP-αMSH, FlashPlate): + (“+” indicates greater than 50% inhibition at 10 μM); A7: inhibition of radioligand binding (Human μ-opioid (MOP); [3H]-Naloxone, FlashPlate): − (“−” indicates less than 50% inhibition at 10 μM); A5: inhibition of radioligand binding (Human melanocortin (MC5); [125I]-NDP-αMSH, FlashPlate): + (“+” indicates greater than 50% inhibition at 10 μM); A6: inhibition of radioligand binding ([1]; [125I]-S36057, FlashPlate): − (“−” indicates less than 50% inhibition at 10 μM); A8: inhibition of radioligand binding (Human neurokinin (NK1); [125I]-Substance P, filtration): + (“+” indicates greater than 50% inhibition at 10 μM); A9: inhibition of radioligand binding ([2]; [125I]-PYY, FlashPlate): − (“−” indicates less than 50% inhibition at 10 μM); A1: inhibition of radioligand binding (Human δ-opioid (DOP); [3H]-Bremazocine, FlashPlate): − (“−” indicates less than 50% inhibition at 10 μM); A11: inhibition of radioligand binding (Mouse urotensin (mUR2); [125I]-Urotensin II, FlashPlate): − (“−” indicates less than 50% inhibition at 10 μM)
NCCCC(=O)NC1C(OCc2ccc(Cl)cc2)OC(COCc2ccc(Cl)cc2)C(O)C1OCc1ccc2ccccc2c1 (single isomer, unassigned) [compound 499]												+ (“+” indicates greater than 50% inhibition at 10 μM)	− (“−” indicates less than 50% inhibition at 10 μM)	+ (“+” indicates greater than 50% inhibition at 10 μM)	+ (“+” indicates greater than 50% inhibition at 10 μM)	− (“−” indicates less than 50% inhibition at 10 μM)	+ (“+” indicates greater than 50% inhibition at 10 μM)	+ (“+” indicates greater than 50% inhibition at 10 μM)	− (“−” indicates less than 50% inhibition at 10 μM)	− (“−” indicates less than 50% inhibition at 10 μM)	A6: inhibition of radioligand binding, human melanin-concentrating hormone (MCH1) ([1]; 10 µM): − (“−” indicates less than 50% inhibition at 10 μM); A1: inhibition of radioligand binding, human δ-opioid (DOP) (Human δ-opioid (DOP); [3H]-Bremazocine): − (“−” indicates less than 50% inhibition at 10 μM)
CO[C@H]1[C@H](O)[C@@H](COCc2ccc(-c3ccccc3)cc2)OC(OCc2ccc3ccccc3c2)[C@@H]1NC(=O)CCNC(=N)N (stereo partly shown) [compound 67]	+ (“+” indicates greater than 50% inhibition at 10 μM)	− (“−” indicates less than 50% inhibition at 10 μM)	+ (“+” indicates greater than 50% inhibition at 10 μM)	+ (“+” indicates greater than 50% inhibition at 10 μM)	+ (“+” indicates greater than 50% inhibition at 10 μM)	+ (“+” indicates greater than 50% inhibition at 10 μM)	+ (“+” indicates greater than 50% inhibition at 10 μM)	+ (“+” indicates greater than 50% inhibition at 10 μM)	− (“−” indicates less than 50% inhibition at 10 μM)	+ (“+” indicates greater than 50% inhibition at 10 μM)	− (“−” indicates less than 50% inhibition at 10 μM)										
